Values quoted from earlier work as cited in patent publication US8758823B2, “Method for obtaining non-water-soluble powders having antimicrobial activity, the powders thus obtained and the antibacterial use thereof” (Poly-Bio, priority 2009, dated 2014).

Tested on: Staphylococcus aureus
Conditions: quaternary ammonium chloride in aqueous solution; AKZO NOBEL guideline formulation

CCCCCCCCCC[N+](C)(C)CCCCCCCCCC.[Cl-] [ARQUAD 210-50, didecyl dimethyl ammonium chloride]
concentration recommended to obtain the same result (reduction greater than 5 Log): 12 to 16 ppm
